Reference: patent publication US20220280603A1, “TARGETING OF THE CYTOSKELETON AS A THERAPEUTIC APPROACH FOR NEURODEGENERATIVE DISEASE” (University of Massachusetts, priority 2019, published 2022)
“Also recorded” adds a separate entry of the source.

Assays:
[1] = tested on: primary motor neurons (MNs) expressing C71G PFN1; experiment: Immunofluorescence of nuclear pore/NCT factors and TDP-43 in motor neurons expressing mutant PFN1; format: cell-based, mouse; conditions: vs DMSO
Experimental: (§1) Primary motor neurons (MNs) were isolated from E12.5 mouse embryonic spinal cords dissociated in 0.1% trypsin (Worthington) at 37° C. for 12 minutes. MNs were purified using a 6% Optiprep (Sigma-Aldrich) density gradient and plated on glass coverslips coated with 0.5 g/L poly-ornithine (Sigma-Aldrich) and laminin (Thermo Fisher). Cells were grown at 37° C. and 5% CO2 in Neurobasal medium (Thermo Fisher) supplemented with 0.25% Glutamax, 2% B27, 2% horse serum, and 10 ng/ml BDNF, GDNF, and CNTF. MNs at 2 days in vitro (DIV) were transfected using 1.75 μl NeuroMag reagent (OZ Biosciences)+0.5 μg DNA. Complete growth medium was replaced with serum free neurobasal medium 1 hour prior and after transfection. The paramagnetic nanobeads used for transfection can linger inside the cell and in the extracellular space for several days and can be detected as DAPI positive dots. The V5-PFN1 plasmids were described in Wu, C. H. et al. Mutations in the profilin 1 gene cause familial amyotrophic lateral sclerosis. Nature 488, 499-503 (2012). The (G4C2)80 (SEQ ID NO:12). construct was described in Almeida, S. et al. Modeling key pathological features of frontotemporal dementia with C9ORF72 repeat expansion in iPSC-derived human neurons. Acta Neuropathol 126, 385-399 (2013). For the GFP-PFN1 constructs, WT or mutant PFN1 was PCR amplified from the V5 constructs and cloned in the pEGFP-C1 backbone using BamHI sites. The FH1-FH2 domains of murine formin mDia1 (amino acid residues 553-1192) were PCR amplified using specific primers and cloned into the pEGFP-C1 plasmid using XhoI and BamHI restriction sites. GFP or GFP-mDia1 were co-transfected in a 1:2 ratio with PFN1 or C9ORF72 plasmids. […]
(§2) Immunofluorescence images were deconvolved using an adaptative blind deconvolution algorithm (Autoquant X3, Media Cybernetics) before analysis. To measure fluorescence intensities, the signals were thresholded and the resulting integrated densities were normalized on the area of the selected region (e.g. cell body, nucleus). […]

[2] = tested on: Neurofilament L mRNA in MNs expressing C71G PFN1; experiment: Fluorescence in situ hybridization of Neurofilament L mRNA; format: cell-based, mouse; conditions: IMM01 vs DMSO
Experimental: Primary motor neurons (MNs) were isolated from E12.5 mouse embryonic spinal cords dissociated in 0.1% trypsin (Worthington) at 37° C. for 12 minutes. MNs were purified using a 6% Optiprep (Sigma-Aldrich) density gradient and plated on glass coverslips coated with 0.5 g/L poly-ornithine (Sigma-Aldrich) and laminin (Thermo Fisher). Cells were grown at 37° C. and 5% CO2 in Neurobasal medium (Thermo Fisher) supplemented with 0.25% Glutamax, 2% B27, 2% horse serum, and 10 ng/ml BDNF, GDNF, and CNTF. MNs at 2 days in vitro (DIV) were transfected using 1.75 μl NeuroMag reagent (OZ Biosciences)+0.5 μg DNA. Complete growth medium was replaced with serum free neurobasal medium 1 hour prior and after transfection. The paramagnetic nanobeads used for transfection can linger inside the cell and in the extracellular space for several days and can be detected as DAPI positive dots. The V5-PFN1 plasmids were described in Wu, C. […]
Immunofluorescence images were deconvolved using an adaptative blind deconvolution algorithm (Autoquant X3, Media Cybernetics) before analysis. To measure fluorescence intensities, the signals were thresholded and the resulting integrated densities were normalized on the area of the selected region (e.g. cell body, nucleus). […] For NCT dynamics, the fluorescence intensity of S-mCherry was measured in the nucleus using ImageJ and normalized to the background for every time point. […]

[3] = tested on: fibroblasts from ALS patients carrying C9ORF72 repeat expansions; experiment: FISH for C9ORF72 RNA nuclear foci in patient fibroblasts; format: cell-based, human; conditions: IMM01 treatment
Experimental: Fibroblasts were obtained from skin biopsies of 3 ALS patients carrying mutations in C9ORF72 gene and of 3 healthy donors, sex- and age-matched with ALS cases, after informed consent and approval by the IRCCS Istituto Auxologico Italiano ethics committee. C9ORF72 mutation was validated in primary fibroblasts by repeat-primed PCR and repeat expansion size determined by Southern blot analysis (range 600-1500 units). Fibroblasts were grown in RPMI 1640 medium (EuroClone) containing 2 g/L glucose and supplemented with 10% FBS (Sigma Aldrich), 2 mM L-glutamine, 2.5 μg/ml amphotericin B (Sigma Aldrich), 100 units/ml penicillin and 100 μg/ml streptomycin (Gibco). 10,000 cell/well were seeded on glass coverslip in 24-well plates and after 24 hours, 50% of medium was replaced with fresh medium and IMM01 (Sigma Aldrich) at the final concentration of 0.1 μM. After a 24-hour treatment, cells were fixed with 4% paraformaldehyde for 20 minutes, permeabilized with 0.3% Triton X-100/1×PBS for 5 minutes and processed for immunofluorescence as described below.
Motor neurons were fixed in 4% RNase-free paraformaldehyde for 15 minutes and stored in 70% ethanol at 4° C. overnight. […]

[4] = tested on: primary motor neurons (MNs); experiment: Cell death / apoptosis in treated motor neurons; format: cell-based, mouse
Experimental: as §1, with “(2013).” for “(2013). For the GFP-PFN1 constructs, WT or mutant PFN1 was PCR amplified from the V5 constructs and cloned in the pEGFP-C1 backbone using BamHI sites. The FH1-FH2 domains of murine formin mDia1 (amino acid residues 553-1192) were PCR amplified using specific primers and cloned into the pEGFP-C1 plasmid using XhoI and BamHI restriction sites. GFP or GFP-mDia1 were co-transfected in a 1:2 ratio with PFN1 or C9ORF72 plasmids.”

[5] = tested on: fibroblasts from ALS patients carrying C9ORF72 repeat expansions; experiment: Immunofluorescence of RanGAP1 and FG-Nups in C9ORF72-ALS patient fibroblasts; format: cell-based, human; conditions: 0.1 μM IMM01 for 24 hours, vs DMSO
Experimental: Fibroblasts were obtained from skin biopsies of 3 ALS patients carrying mutations in C9ORF72 gene and of 3 healthy donors, sex- and age-matched with ALS cases, after informed consent and approval by the IRCCS Istituto Auxologico Italiano ethics committee. C9ORF72 mutation was validated in primary fibroblasts by repeat-primed PCR and repeat expansion size determined by Southern blot analysis (range 600-1500 units). Fibroblasts were grown in RPMI 1640 medium (EuroClone) containing 2 g/L glucose and supplemented with 10% FBS (Sigma Aldrich), 2 mM L-glutamine, 2.5 μg/ml amphotericin B (Sigma Aldrich), 100 units/ml penicillin and 100 μg/ml streptomycin (Gibco). […]
Immunofluorescence images were deconvolved using an adaptative blind deconvolution algorithm (Autoquant X3, Media Cybernetics) before analysis. To measure fluorescence intensities, the signals were thresholded and the resulting integrated densities were normalized on the area of the selected region (e.g. cell body, nucleus). […] For NCT dynamics, the fluorescence intensity of S-mCherry was measured in the nucleus using ImageJ and normalized to the background for every time point. […] For the analysis of axonal fluorescence intensities, a 100 μm long region of the proximal axon was measured in all conditions. Axon lengths were measured using the ImageJ plugin NeuronJ 60. […]

[6] = tested on: primary motor neurons (MNs) expressing C71G PFN1; experiment: Axon length and outgrowth analysis; format: cell-based, mouse
Experimental: Motor neurons were co-transfected as outlined above with green fluorescent protein (GFP) and V5-tagged PFN1 constructs in a 1:2 ratio. KPT-276 (50 nM) or equal volumes of DMSO were added to the culture medium 1 day after transfection and maintained throughout the experiment for a total of 3 days. Cells were fixed and stained to detect V5-PFN1 expression 4 days after transfection. Cells were imaged as individual focal planes using a 10× lens. GFP was used to identify transfected cells and highlight the whole cell structure. […]
Immunofluorescence images were deconvolved using an adaptative blind deconvolution algorithm (Autoquant X3, Media Cybernetics) before analysis. To measure fluorescence intensities, the signals were thresholded and the resulting integrated densities were normalized on the area of the selected region (e.g. cell body, nucleus). […] For NCT dynamics, the fluorescence intensity of S-mCherry was measured in the nucleus using ImageJ and normalized to the background for every time point. […] For the analysis of axonal fluorescence intensities, a 100 μm long region of the proximal axon was measured in all conditions. Axon lengths were measured using the ImageJ plugin NeuronJ 60. […] The rate of axon outgrowth was measured using the ImageJ plugin MTrackJ by tracking the movement of the growth cone in all fields. […]

[7] = tested on: primary motor neurons (MNs); experiment: Actin depolymerization assay: immunofluorescence of NCT factors in Latrunculin A treated motor neurons; format: cell-based, mouse; conditions: 0.1 mg/L Latrunculin A for 3 days
Experimental: Primary motor neurons (MNs) were isolated from E12.5 mouse embryonic spinal cords dissociated in 0.1% trypsin (Worthington) at 37° C. for 12 minutes. MNs were purified using a 6% Optiprep (Sigma-Aldrich) density gradient and plated on glass coverslips coated with 0.5 g/L poly-ornithine (Sigma-Aldrich) and laminin (Thermo Fisher). Cells were grown at 37° C. and 5% CO2 in Neurobasal medium (Thermo Fisher) supplemented with 0.25% Glutamax, 2% B27, 2% horse serum, and 10 ng/ml BDNF, GDNF, and CNTF. MNs at 2 days in vitro (DIV) were transfected using 1.75 μl NeuroMag reagent (OZ Biosciences)+0.5 μg DNA. Complete growth medium was replaced with serum free neurobasal medium 1 hour prior and after transfection. The paramagnetic nanobeads used for transfection can linger inside the cell and in the extracellular space for several days and can be detected as DAPI positive dots. The V5-PFN1 plasmids were described in Wu, C. H. et al. Mutations in the profilin 1 gene cause familial amyotrophic lateral sclerosis. Nature 488, 499-503 (2012). The (G4C2)80 (SEQ ID NO:12). construct was described in Almeida, S. et al. Modeling key pathological features of frontotemporal dementia with C9ORF72 repeat expansion in iPSC-derived human neurons. Acta Neuropathol 126, 385-399 (2013). For the GFP-PFN1 constructs, WT or mutant PFN1 was PCR amplified from the V5 constructs and cloned in the pEGFP-C1 backbone using BamHI sites. The FH1-FH2 domains of murine formin mDia1 (amino acid residues 553-1192) were PCR amplified using specific primers and cloned into the pEGFP-C1 plasmid using XhoI and BamHI restriction sites. GFP or GFP-mDia1 were co-transfected in a 1:2 ratio with PFN1 or C9ORF72 plasmids. Mock transfection controls were performed by subjecting the cells to all the steps of transfection without adding any plasmid DNA. For actin depolymerization assays, 2 DIV MNs were treated with 0.1 mg/L Latrunculin A (Cayman) for 3 days. For nuclear export inhibition, MNs were treated with 50 nM KPT-276 (Selleck) or equal volume of DMSO (Sigma Aldrich) 1 day after transfection. For formin induction, MNs were treated with 0.1 μM IMM01 (EMD Millipore) for 24 hr before fixation at 6 DIV.
Cells were fixed with 4% paraformaldehyde for 15 minutes. Fixed motor neurons were treated with hot 10 mM citrate buffer, pH 6 for 20 minutes before permeabilization with 0.2% Triton-X 100 for 5 minutes. […]
as §2

CC(C)(C)NC(=S)N/N=C/c1ccc(O)cc1O [IMM01]
FG-Nups localization at the nuclear envelope ([1]; 0.1 μM IMM01 for 24 hours): rescue of FG-Nups defective localization at the nuclear envelope; also recorded: rescue of mislocalization
Ran gradient (Ran localization) ([1]; 0.1 μM IMM01 for 24 hours): rescue of mislocalization
axonal localization of Nef1 mRNA [2]: rescue the defects in the axonal localization; also recorded: rescue of mislocalization
propensity of the cell to form C9ORF72-positive nuclear foci [3]: without changes to the propensity of the cell to form C9ORF72-positive nuclear foci
induction of apoptosis ([4]; primary MNs, 0.1 μM IMM01 for 24 hours): No induction of apoptosis was detected
localization of FG-Nups [5]: rescued defects in the localization; also recorded: significantly rescued the defects
localization of RanGAP1 [5]: rescued defects in the localization; also recorded: significantly rescued the defects

O=C(/C=C\n1cnc(-c2cc(C(F)(F)F)cc(C(F)(F)F)c2)n1)N1CC(F)(F)C1 [KPT-276]
C:N ratio of TDP-43 (TDP-43 cytoplasmic mislocalization) ([1]; 50 nM KPT-276 6 hours prior to fixation): fully rescue TDP-43 cytoplasmic mislocalization; also recorded: rescues C:N ratio of TDP-43
axon length ([6]; 50 nM KPT-276 for 3 days, vs DMSO): fully rescued the defect
rate of axon growth (outgrowth) by live cell imaging ([6]; 50 nM KPT-276 ~18-24 hours, imaged over 1 hour): full rescue of the outgrowth defects

C/C1=C/C(=O)O[C@@H]2C[C@@H](CC[C@H](C)/C=C\C=C\CC1)O[C@@](O)([C@@H]1CSC(=O)N1)C2 [Latrunculin A]
cell death or apoptosis ([4]; MNs, Latrunculin A treatment conditions (0.1 mg/L, 3 days), data not shown): No increased cell death or apoptosis was observed
localization of FG-Nups [7]: severe mislocalization
localization of Ran [7]: severe mislocalization; also recorded: disrupted
localization of RanGAP1 [7]: severe mislocalization; also recorded: disrupted
nuclear morphology [7]: smaller nuclei with condensed DNA
